In patent US10544143B2, “4-azaindole compounds” (BRISTOL-MYERS SQUIBB COMPANY, priority 2017, dated 2020):
Where two headings read alike, the source gives them in different places.

Experiments:
[1] = target: human TLR9 (Homo sapiens (Human), UniProt Q9NR96); assay: TLR9 inhibition reporter assay (HEK-Blue SEAP);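 also: SEAP driven by an IFN-β minimal promoter with NF-κB and AP-1 sites, read after 22 h, compounds dosed 0.05 nM–50 µM, inhibition scaled between agonist plus DMSO and reference-inhibitor wells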
human TLR9, sequence (Q9NR96 26-1032): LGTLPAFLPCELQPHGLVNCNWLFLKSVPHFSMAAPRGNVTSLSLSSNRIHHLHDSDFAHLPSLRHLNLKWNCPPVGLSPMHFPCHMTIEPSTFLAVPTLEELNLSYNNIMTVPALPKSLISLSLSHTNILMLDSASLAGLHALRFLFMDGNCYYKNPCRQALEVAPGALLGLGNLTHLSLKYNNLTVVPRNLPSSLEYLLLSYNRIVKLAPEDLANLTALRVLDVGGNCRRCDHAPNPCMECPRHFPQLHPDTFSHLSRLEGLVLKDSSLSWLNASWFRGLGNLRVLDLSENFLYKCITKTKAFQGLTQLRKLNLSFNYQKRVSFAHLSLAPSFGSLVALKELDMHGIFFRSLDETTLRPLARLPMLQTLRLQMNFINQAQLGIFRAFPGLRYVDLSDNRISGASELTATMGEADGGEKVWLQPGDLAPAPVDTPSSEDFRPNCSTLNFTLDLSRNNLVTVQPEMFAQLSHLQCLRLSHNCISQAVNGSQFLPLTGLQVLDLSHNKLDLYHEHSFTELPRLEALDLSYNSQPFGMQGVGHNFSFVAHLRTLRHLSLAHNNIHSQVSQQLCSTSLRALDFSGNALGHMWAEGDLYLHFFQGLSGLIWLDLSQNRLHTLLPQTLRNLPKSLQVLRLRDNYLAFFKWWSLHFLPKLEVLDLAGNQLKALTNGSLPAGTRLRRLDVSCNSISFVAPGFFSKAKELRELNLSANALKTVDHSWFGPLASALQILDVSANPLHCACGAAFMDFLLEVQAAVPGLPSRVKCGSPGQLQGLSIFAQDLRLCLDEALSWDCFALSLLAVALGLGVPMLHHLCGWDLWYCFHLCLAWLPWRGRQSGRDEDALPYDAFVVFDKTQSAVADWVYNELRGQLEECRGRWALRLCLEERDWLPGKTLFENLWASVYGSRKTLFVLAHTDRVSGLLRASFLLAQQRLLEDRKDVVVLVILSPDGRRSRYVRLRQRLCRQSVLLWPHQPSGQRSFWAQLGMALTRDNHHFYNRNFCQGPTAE

[2] = target: human TLR8 (Homo sapiens (Human), UniProt Q9NR97); assay: TLR8 inhibition reporter assay (HEK-Blue SEAP);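 also: SEAP driven by IFN-β minimal promoter carrying NF-κB and AP-1 sites, compounds dosed 0.05 nM to 50 µM for 22 h, inhibition scaled between agonist-plus-DMSO and reference-inhibitor wells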
human TLR8, sequence (Q9NR97 27-1041): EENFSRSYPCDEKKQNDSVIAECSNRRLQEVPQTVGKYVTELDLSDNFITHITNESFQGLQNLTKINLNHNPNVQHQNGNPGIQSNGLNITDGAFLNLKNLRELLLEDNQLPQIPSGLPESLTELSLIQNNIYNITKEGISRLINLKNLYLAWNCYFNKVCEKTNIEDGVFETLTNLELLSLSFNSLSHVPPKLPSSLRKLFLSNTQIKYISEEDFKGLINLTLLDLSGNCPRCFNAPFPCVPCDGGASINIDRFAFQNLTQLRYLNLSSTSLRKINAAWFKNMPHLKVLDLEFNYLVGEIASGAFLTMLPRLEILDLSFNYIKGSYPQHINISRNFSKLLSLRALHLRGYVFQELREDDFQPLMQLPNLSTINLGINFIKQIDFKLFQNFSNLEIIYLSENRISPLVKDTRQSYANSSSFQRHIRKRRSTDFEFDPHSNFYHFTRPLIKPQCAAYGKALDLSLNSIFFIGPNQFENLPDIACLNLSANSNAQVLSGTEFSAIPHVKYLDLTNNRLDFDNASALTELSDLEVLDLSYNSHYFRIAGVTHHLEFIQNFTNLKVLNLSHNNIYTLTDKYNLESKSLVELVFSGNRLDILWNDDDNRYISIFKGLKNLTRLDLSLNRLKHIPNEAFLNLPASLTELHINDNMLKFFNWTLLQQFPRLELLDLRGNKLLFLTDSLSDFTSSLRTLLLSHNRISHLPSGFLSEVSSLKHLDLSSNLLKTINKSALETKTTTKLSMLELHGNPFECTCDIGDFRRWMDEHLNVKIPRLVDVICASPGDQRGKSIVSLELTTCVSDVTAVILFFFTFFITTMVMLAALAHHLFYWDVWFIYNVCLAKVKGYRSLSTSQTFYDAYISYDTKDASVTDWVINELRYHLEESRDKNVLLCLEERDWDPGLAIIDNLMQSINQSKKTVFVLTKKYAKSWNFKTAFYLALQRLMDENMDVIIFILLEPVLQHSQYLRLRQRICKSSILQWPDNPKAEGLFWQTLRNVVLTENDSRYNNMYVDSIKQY

[3] = target: human TLR7 (Homo sapiens (Human), UniProt Q9NYK1); assay: TLR7 inhibition reporter assay (HEK-Blue SEAP); type: cell-based
human TLR7, sequence (Q9NYK1 27-1049): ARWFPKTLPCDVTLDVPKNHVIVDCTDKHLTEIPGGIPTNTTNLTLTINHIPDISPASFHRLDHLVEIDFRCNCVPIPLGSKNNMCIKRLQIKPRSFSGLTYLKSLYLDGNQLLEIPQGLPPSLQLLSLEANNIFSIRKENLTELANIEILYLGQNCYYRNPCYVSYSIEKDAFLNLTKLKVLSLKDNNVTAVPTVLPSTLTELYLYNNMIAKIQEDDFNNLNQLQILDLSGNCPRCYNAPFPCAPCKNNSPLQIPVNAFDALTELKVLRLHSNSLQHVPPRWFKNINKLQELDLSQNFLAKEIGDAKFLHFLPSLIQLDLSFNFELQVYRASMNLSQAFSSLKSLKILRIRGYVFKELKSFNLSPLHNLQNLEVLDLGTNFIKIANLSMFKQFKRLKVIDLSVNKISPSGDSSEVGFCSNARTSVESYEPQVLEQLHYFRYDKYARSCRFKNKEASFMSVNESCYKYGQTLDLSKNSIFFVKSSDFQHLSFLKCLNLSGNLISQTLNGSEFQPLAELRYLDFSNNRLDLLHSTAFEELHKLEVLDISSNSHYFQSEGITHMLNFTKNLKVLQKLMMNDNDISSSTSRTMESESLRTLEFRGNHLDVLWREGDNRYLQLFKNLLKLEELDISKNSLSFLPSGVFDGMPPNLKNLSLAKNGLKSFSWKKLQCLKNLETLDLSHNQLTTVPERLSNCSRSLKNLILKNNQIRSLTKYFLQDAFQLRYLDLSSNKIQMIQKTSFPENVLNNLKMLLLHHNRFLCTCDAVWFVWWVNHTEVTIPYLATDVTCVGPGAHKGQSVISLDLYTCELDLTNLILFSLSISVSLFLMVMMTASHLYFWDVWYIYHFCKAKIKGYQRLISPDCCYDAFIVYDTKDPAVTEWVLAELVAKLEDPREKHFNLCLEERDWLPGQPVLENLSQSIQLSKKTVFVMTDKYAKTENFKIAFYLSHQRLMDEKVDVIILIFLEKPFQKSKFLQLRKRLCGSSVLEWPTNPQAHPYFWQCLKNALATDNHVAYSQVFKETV

[4] = read-out: TLR9 IC50, HEK-Blue cells overexpressing human TLR9, ODN2006 5 nM stimulation, SEAP reporter
[5] = read-out: TLR8 IC50, HEK-Blue cells overexpressing human TLR8, R848 15.9 μM stimulation, SEAP reporter
[6] = HEK-Blue cells overexpressing human TLR7, gardiquimod 7.5 μM stimulation, SEAP reporter
[7] = read-out: TLR9 IC50, HEK-Blue human TLR9 cells, ODN2006 5 nM
[8] = read-out: TLR8 IC50, HEK-Blue human TLR8 cells, R848 15.9 μM
[9] = HEK-Blue human TLR7 cells, gardiquimod 7.5 μM
[10] = read-out: TLR9 IC50, HEK-Blue cells overexpressing human TLR9, SEAP reporter, ODN2006 5 nM
[11] = read-out: TLR8 IC50, HEK-Blue cells overexpressing human TLR8, SEAP reporter, R848 15.9 μM
[12] = HEK-Blue cells overexpressing human TLR7, SEAP reporter, gardiquimod 7.5 μM

SMILES | IC50 [1, 4] [nM] | IC50 [2, 5] [nM] | IC50 [3, 6] [nM] | IC50 [1, 7] [nM] | IC50 [2, 8] [nM] | IC50 [3, 9] [nM] | IC50 [1, 10] [nM] | IC50 [2, 11] [nM] | IC50 [3, 12] [nM] | further results
Cc1c(-c2[nH]c3ccc(C4CCC(=O)CC4)nc3c2C(C)C)cn2ncnc2c1C [Example 349] | > 50000 | 63 | 7.7 | – | – | – | – | – | – | –
Cc1c(-c2[nH]c3ccc(N4C[C@@H](C)N[C@@H](C)C4)nc3c2C(C)C)cn2ncnc2c1C [Example 976] | – | – | – | 13400 | 0.96 | 2.5 | – | – | – | –
Cc1c(-c2[nH]c3ccc(C4CN(C(=O)CN(C)C)CCO4)nc3c2C(C)C)cn2ncnc2c1C (stereo not drawn) [Example 663] | – | – | – | – | – | – | 21100 | 9.9 | 3.5 | –
COc1cc(-c2[nH]c3ccc(C4CCC(NC5COC5)CC4)nc3c2C(C)C)cn2ncnc12 (stereo not drawn) [Example 180] | 1870 | 11 | 2.8 | – | – | – | – | – | – | –
Cc1cnc(CN(C)C2CCC(c3ccc4[nH]c(-c5cn6ncnc6c(C)c5C)c(C(C)C)c4n3)CC2)cn1 (stereo not drawn) [Example 415] | – | – | – | – | – | – | 1240 | 3.5 | 2.5 | –
CCN(CC)CC(=O)N1C[C@H](C)N(c2ccc3[nH]c(-c4cn5ncnc5c(C)c4C)c(C(C)C)c3n2)C[C@H]1C [Example 895] | – | – | – | 7930 | 1.1 | 0.74 | – | – | – | –
Cc1c(-c2[nH]c3ccc(C4CCN(C5COC5)CC4)nc3c2C(C)C)cn(C)c(=O)c1C [Example 542] | – | – | – | – | – | – | 9240 | 17 | 24 | –
COc1cc(-c2[nH]c3ccc(C4CCC(NC5CCOCC5)C4)nc3c2C(C)C)cn2ncnc12 (stereo not drawn) [Example 710] | – | – | – | – | – | – | 4660 | 3.2 | 2 | –
CC(C)c1c(-c2cc(CO)c3ncnn3c2)[nH]c2ccc(C3CCC(N(C)C4COC4)CC3)nc12 (stereo not drawn) [Example 246] | 4280 | 2.6 | 1.9 | – | – | – | – | – | – | –
Cc1c(-c2[nH]c3ccc(N4CCNC[C@@H]4C(C)C)nc3c2C(C)C)cn2ncnc2c1C [Example 992] | – | – | – | 6310 | 0.72 | 0.66 | – | – | – | –
CNC(=O)CN1CCC(c2ccc3[nH]c(-c4cn(C)c(=O)c(Cl)c4C)c(C(C)C)c3n2)CC1 [Example 565] | – | – | – | – | – | – | 3220 | 6.9 | 8.8 | –
Cc1cc(-c2[nH]c3ccc(C4CCNCC4)nc3c2C(C)C)cn2ncnc12 [Example 516] | – | – | – | – | – | – | 155 | 1.9 | 0.22 | –
COc1cc(-c2[nH]c3ccc(C4CCN(CC(N)=O)CC4)nc3c2C(C)C)cn2ncnc12 [Example 558] | – | – | – | – | – | – | 3430 | 5.6 | 1.2 | –
Cc1c(-c2[nH]c3ccc(N4CCN(C5CCOC5)C[C@@H]4C)nc3c2C(C)C)cn2ncnc2c1C (stereo partly drawn) [Example 814] | – | – | – | > 50000 | 2.3 | 1.9 | – | – | – | –
Cc1cnc(CNC2CCC(c3ccc4[nH]c(-c5cn6ncnc6c(C)c5C)c(C(C)C)c4n3)CC2)cn1 (stereo not drawn) [Example 357] | 1050 | 4.4 | 3.9 | – | – | – | – | – | – | –
COc1cc(-c2[nH]c3ccc(C4CCC(NC(C)C)C4)nc3c2C(C)C)cn2ncnc12 (stereo not drawn) [Example 723] | – | – | – | – | – | – | 4390 | 2.4 | 0.99 | –
COc1cc(-c2[nH]c3ccc(C4CCC(N(C)C(C)C)CC4)nc3c2C(C)C)cn2ncnc12 (stereo not drawn) [Example 168] | 658 | 3.4 | 0.89 | – | – | – | – | – | – | –
Cc1c(-c2[nH]c3ccc(CCC4CN(C(=O)CN(C)C)C4)nc3c2C(C)C)cn2ncnc2c1C [Example 685] | – | – | – | – | – | – | 1580 | 39 | 32 | –
Cc1c(-c2[nH]c3ccc(N4CCN(C(=O)CN(CCO)C(C)(C)C)C[C@H]4C)nc3c2C(C)C)cn2ncnc2c1C [Example 953] | – | – | – | 12000 | 5.3 | 0.92 | – | – | – | –
Cc1c(-c2[nH]c3ccc(N4C[C@H](C)N(CCC(N)=O)C[C@@H]4C)nc3c2C(C)C)cn2ncnc2c1C [Example 794] | – | – | – | 18000 | 1.5 | 1.4 | – | – | – | –

SMILES | IC50 [1, 4] [nM] | IC50 [2, 5] [nM] | IC50 [3, 6] [nM] | IC50 [1, 7] [nM] | IC50 [2, 8] [nM] | IC50 [3, 9] [nM] | IC50 [1, 10] [nM] | IC50 [2, 11] [nM] | IC50 [3, 12] [nM] | further results
Cc1cnc(CNC2CCC(c3ccc4[nH]c(-c5cn(C)c6ncccc56)c(C(C)C)c4n3)CC2)cn1 (stereo not drawn) [Example 205] | 134 | 1 | 0.42 | – | – | – | – | – | – | –
COc1cc(-c2[nH]c3ccc(C4CCC(NC5CCOCC5)C4)nc3c2C(C)C)cn2ncnc12 (stereo not drawn) [Example 727] | – | – | – | – | – | – | 3350 | 3.2 | 3.6 | –
Cc1cnc(CNC2CCC(c3ccc4[nH]c(-c5cn6ncnc6c(C)c5C)c(C(C)C)c4n3)CC2)cn1 (stereo not drawn) [Example 359] | 4870 | 29 | 9.1 | – | – | – | – | – | – | –
Cc1c(-c2[nH]c3ccc(C4CCC(N(C)CCS(C)(=O)=O)CC4)nc3c2C(C)C)cn2ncnc2c1C (stereo not drawn) [Example 427] | – | – | – | – | – | – | 4900 | 7.6 | 2.4 | –
Cc1c(-c2[nH]c3ccc(N4CCN(C(=O)CN(C)C(C)(C)C)CC4)nc3c2C(C)C)cn2ncnc2c1C [Example 878] | – | – | – | 9040 | 2.2 | 0.48 | – | – | – | –
COc1cc(-c2[nH]c3ccc(CCC4CN(CC(=O)N(C)C)C4)nc3c2C(C)C)cn2ncnc12 [Example 689] | – | – | – | – | – | – | 433 | 42 | 11 | –
Cc1c(-c2[nH]c3ccc(N4C[C@H](C)N(CCCS(C)(=O)=O)C[C@@H]4C)nc3c2C(C)C)cn2ncnc2c1C [Example 795] | – | – | – | > 50000 | 8.1 | 12 | – | – | – | –
Cc1c(-c2[nH]c3ccc(N4CCN(C(=O)CN(C)CCO)CC4)nc3c2C(C)C)cn2ncnc2c1C [Example 969] | – | – | – | 7180 | 0.12 | 1.3 | – | – | – | –
COc1cc(-c2[nH]c3ccc(N4CCN(C(C)CO)CC4)nc3c2C(C)C)cn2ncnc12 (stereo not drawn) [Example 117] | 5640 | 0.81 | 1.4 | – | – | – | – | – | – | –
COc1cc(-c2[nH]c3ccc(C4CCC(N(C)Cc5ncccn5)CC4)nc3c2C(C)C)cn2ncnc12 (stereo not drawn) [Example 208] | 1350 | 16 | 2.2 | – | – | – | – | – | – | –
Cc1c(-c2[nH]c3ccc(C4CCC(NC5COC5)CC4)nc3c2C(C)C)cn2cnnc2c1C (stereo not drawn) [Example 233] | 2660 | 24 | 11 | – | – | – | – | – | – | –
Cc1c(-c2[nH]c3ccc(N4C[C@H](C)NC[C@@H]4C)nc3c2C(C)C)cn2ncnc2c1C [Example 991] | – | – | – | 5990 | 0.32 | 0.27 | – | – | – | –
Cc1c(-c2[nH]c3ccc(C4CCC(NCC5(C)COC5)CC4)nc3c2C(C)C)cn2ncnc2c1C (stereo not drawn) [Example 474] | – | – | – | – | – | – | 1450 | 0.43 | 0.46 | –
COc1cc(-c2[nH]c3ccc(N4CCN(CC(=O)N(C)C)CC4)nc3c2C(C)C)cn2ncnc12 [Example 128] | 35400 | 2.6 | 5.4 | – | – | – | – | – | – | –
COc1cc(-c2[nH]c3ccc(C4CCC(N(C)CCS(C)(=O)=O)CC4)nc3c2C(C)C)cn2ncnc12 (stereo not drawn) [Example 242] | 2410 | 15 | 1.5 | – | – | – | – | – | – | –
[2H]C([2H])([2H])NCCC(=O)N1C[C@H](C)N(c2ccc3[nH]c(-c4cn5ncnc5c(C)c4C)c(C(C)C)c3n2)C[C@H]1C [Example 964] | – | – | – | – | – | 0.53 | – | – | – | IC50 ([1]; TLR9 IC50, HEK-Blue human TLR9 cells, ODN2006 5 nM): 3100 nM; IC50 ([2]; TLR8 IC50, HEK-Blue human TLR8 cells, R848 15.9 μM): 0.25 nM
Cc1c(-c2[nH]c3ccc(N4C[C@@H](C)N(C(C)C)C[C@@H]4C)nc3c2C(C)C)cn2ncnc2c1C [Example 844] | – | – | – | 8820 | 11 | 2 | – | – | – | –
COc1cc(-c2[nH]c3ccc(OC4CCC(N(C)C)CC4)nc3c2C(C)C)cn2ncnc12 (stereo not drawn) [Example 610, 4-((3-isopropyl-2-(8-methoxy-[1,2,4]triazolo[1,5-a]pyridin-6-yl)-1H-pyrrolo[3,2-b]pyridin-5-yl)oxy)-N,N-dimethylcyclohexan-1-amine] | – | – | – | – | – | – | 1770 | 14 | 1.5 | –
Cc1c(-c2[nH]c3ccc(C4CCC(N5CCC6(CCOC6)C5)CC4)nc3c2C(C)C)cn2ncnc2c1C (stereo not drawn) [Example 1059] | – | – | – | 2250 | 1.4 | 1.6 | – | – | – | –
